Results reported in patent publication US20180201647A1, “Peptoid” (The University of Durham, priority 2015, published 2018).
Where two headings read alike, the source gives them in different places. Where a SMILES comes first, the peptide text is derived from it. [ ]: non-standard residue; d: D form. Nspe = C[C@H](NCC(=O)O)c1ccccc1; NhArg = N=C(N)NCCCCNCC(=O)O; Nlys = NCCCCNCC(=O)O

What was measured:
Format in all cases: cell-based
[1] = tested on: Escherichia coli K12 W3110
Method: (§1) Species used in MIC assays included gram-negative Escherichia coli K12 W3110, Pseudomonas aeruginosa laboratory strain PAO2 and Serratia marcescens laboratory strain and gram-positive Staphylococcus aureus NCTC 6571 and Micrococcus luteus laboratory strain.
(§2) Bacterial cultures were prepared by streaking the bacterial strains on to agar plates with an inoculation loop and incubating overnight at 37° C. A single colony was then selected and placed in 5 mL of Iso-Sensitest broth using an inoculation loop and incubated at 37° C. with shaking overnight.
(§3) MIC values were attained according to the protocol described by J. M. Andrews et al. [J. M. Andrews, J. Antimicrob. Chemother., 2001, 48, 5-16] and were conducted in 96-well microtitre plates in triplicate. 10-50 μL of each overnight culture was inoculated into 1.2 mL of Iso-Sensitest broth and grown at 37° C. with shaking. […] The inoculum was diluted ten-fold with Iso-Sensitest broth before use (to ˜10^3 cfu/spot). Peptide solutions were initially dissolved in DMSO (5 mg mL^−1) and then diluted further with Iso-Sensitest broth to achieve a concentration range of 4 mgL^−1 to 512 mgL^−1 using 2-fold serial dilutions. Samples were vortexed between dilutions where necessary to aid dissolution. 50 μL of inoculum and 50 μL of peptide solution were added to each test well to achieve a final concentration range of 2 mgL^−1 to 256 mgL^−1. Separate dilutions of ampicillin and DMSO were made up in a similar manner to act as a positive antibacterial control and a +DMSO control, respectively. 50 μL of inoculum and 50 μL of Iso-Sensitest broth were used as a positive control and 100 μL of inoculum was used as a negative control. Positive and negatives controls were conducted multiple times in parallel per plate. […] Quantitative data were attained as A650nm values using a BioTek® Synergy™ H4 Hybrid Multi-Mode Microplate Reader.

[2] = tested on: Pseudomonas aeruginosa laboratory strain PAO2
Method: as §1, §2, §3

[3] = tested on: Serratia marcescens laboratory strain; conditions: 16 h
Method: as §1, §2, §3

[4] = tested on: Staphylococcus aureus NCTC 6571
Method: as §1, §2, §3

[5] = tested on: E. coli (ATCC 29522) biofilm; assay: Single species biofilm treatment, crystal violet assay; conditions: 100 μM peptoid, 24 hours, FIG. 17C
Method: C. albicans (NCTC 3179) was subcultured aerobically on Sabouraud agar plates and propagated in yeast peptone dextrose broth. E. coli (ATCC 29522) and S. aureus (NCTC 6571) were grown on blood agar plates and propagated in brain heart infusion (BHI) broth.
Overnight cultures of C. albicans were washed and resuspended in a modified RPMI-1640 (Sigma-Aldrich, St Louis, USA) medium to yield an inoculum of 1.0×10^6 cells/ml. Overnight cultures of S. aureus or E. coli were washed and resuspended in brain heart infusion broth (Oxoid, Basingstoke, UK) to yield an inoculum of 5.0×10^6 cells/ml. A total volume of 100 μl of each inoculum was added to microtitre plate wells (Thermo Fisher Scientific, Roskilde, Denmark). An initial biofilm was allowed to form for 4 hours. Wells were washed three times with 200 μl PBS to facilitate removal of planktonic cells and the biofilms were then treated with 100 μM of peptoids 1-4 in the appropriate broth. Plates were incubated for a further 24 hours to allow biofilm maturation. After removal of planktonic cells by washing, biofilms were quantified by the crystal violet assay or by PMA-qPCR.
Biofilm quantification by crystal violet assay Washed biofilms were fixed with 100 μl methanol for 10 minutes. Following removal of methanol, the wells were air dried and stained with crystal violet solution (Clin-Tech Ltd, Guildford, UK) for 20 minutes at room temperature. Excess stain was removed by washing, the plate was then air dried and bound crystal violet was re-solubilised in 16 μl 33% acetic acid prior to reading at 570 nm in a microtitre plate reader (Tecan GENios, Ziirich, Switzerland).

[6] = tested on: Leishmania mexicana (M379)
Method: Leishmania mexicana (M379) promastigote parasites were maintained at 26° C. in Schneider's Insect medium (Sigma-Aldrich) supplemented with heat-inactivated foetal bovine sera (FBS, 15%; Biosera Ltd). Cells were counted using a Neubauer Improved Haemocytometer. Promastigotes were transformed into axenic amastigotes by a pH and temperature shift as previously described. A culture of recently transformed (three days) promastigotes in the late log phase was transferred into Schneider's Insect medium supplemented with 20% heat-inactivated FBS (pH 5.5) at 5×10^5 parasites/mL. After 6 days, the parasites were in the metacyclic stage and used for transformation to amastigote-like forms by transfer in the same medium at 32° C. at 5×10^5 parasites/mL. After additional 5-7 days, the parasites should be in the amastigote stage and be ready for cytotoxicity studies and infections.
Cytotoxicity analyses were performed in 96-well plates (Costar, Fisher Scientific) using Alamar Blue (Invitrogen) for cell viability detection as previously described.
Promastigote and amastigote L. mexicana were pre-incubated with the compounds in triplicate (5 mM stock solutions in DMSO; Amphotericin B was used as a positive control; untreated parasites with DMSO as a negative control) in 50 μl of the corresponding media at 4×106 mL-1 for 1 hour. Afterwards, 40 μl were removed from each well before the addition of 90 μl of the corresponding media, followed by incubation for 24 hours at 4×105 mL-1. Then, 10 μl Alamar Blue solution (Invitrogen) was added to each well for an incubation of 4 hours prior to assessing cell viability using a fluorescent plate reader (Biotek; Ex 560 nm/Em 600 nm). To investigate the effects of serum on the efficacy of the peptoids, the assay described above was modified using serum-free medium for the pre-incubation time. For these assays, the parasites were washed three times in serum-free medium before adding them to the compound solutions. All of the experiments described above were carried out on a minimum of two separate occasions to ensure a robust data set was collected.

[7] = second figure of cell, 37° C., 16 h, Iso-Sensitest broth

## C[C@@H](c1ccccc1)N(CC(N)=O)C(=O)CN(C(=O)CN(CCCCN)C(=O)CN(C(=O)CN(C(=O)CN(CCCCN)C(=O)CN(C(=O)CN(C(=O)CN(CCCCNC(=N)N)C(=O)CN(C(=O)CN(C(=O)CNCCCCNC(=N)N)[C@@H](C)c1ccccc1)[C@@H](C)c1ccccc1)[C@@H](C)c1ccccc1)[C@@H](C)c1ccccc1)[C@@H](C)c1ccccc1)[C@@H](C)c1ccccc1)[C@@H](C)c1ccccc1 [Peptoid 2, (NhArg-Nspe-Nspe)2(NLys-Nspe-Nspe)2] (H-[NhArg][Nspe][Nspe][NhArg][Nspe][Nspe][Nlys][Nspe][Nspe][Nlys][Nspe][Nspe]-NH2; N-terminus assumed)
[1]; K12, 16 h
  MIC E. coli: 17 µM
[1]; [7]
  MIC E. coli: 32 mgL^−1
[2]; laboratory strain PAO2, 16 h
  MIC P. aeruginosa: 17 µM
[2]; [7]
  MIC P. aeruginosa: 32 mgL^−1
[3]; laboratory strain
  MIC S. marcescens: 134 µM
[3]; second figure of cell, 37° C., Iso-Sensitest broth
  MIC S. marcescens: 256 mgL^−1
[4]; NCTC 6571, 16 h
  MIC S. aureus: 17 µM
[4]; [7]
  MIC S. aureus: 32 mgL^−1
[5]
  activity against the E. coli biofilm: strongest anti-bacterial activity
[6]; parasite stage not given, read-out: IC50 L. mexicana
  IC50: 34 µM
[6]; statement in words
  active against L. mexicana: active
